In ChEMBL document CHEMBL1143711, “Design, synthesis, and evaluation of potent, structurally novel peroxisome proliferator-activated receptor (PPAR) delta-selective agonists” (Bioorg Med Chem, 2007):

Assays:
[1] = biological target: T1, Peroxisome proliferator-activated receptor gamma (Homo sapiens, UniProt P37231); format: cell-based, HEK293
T1 sequence (P37231 whole entry): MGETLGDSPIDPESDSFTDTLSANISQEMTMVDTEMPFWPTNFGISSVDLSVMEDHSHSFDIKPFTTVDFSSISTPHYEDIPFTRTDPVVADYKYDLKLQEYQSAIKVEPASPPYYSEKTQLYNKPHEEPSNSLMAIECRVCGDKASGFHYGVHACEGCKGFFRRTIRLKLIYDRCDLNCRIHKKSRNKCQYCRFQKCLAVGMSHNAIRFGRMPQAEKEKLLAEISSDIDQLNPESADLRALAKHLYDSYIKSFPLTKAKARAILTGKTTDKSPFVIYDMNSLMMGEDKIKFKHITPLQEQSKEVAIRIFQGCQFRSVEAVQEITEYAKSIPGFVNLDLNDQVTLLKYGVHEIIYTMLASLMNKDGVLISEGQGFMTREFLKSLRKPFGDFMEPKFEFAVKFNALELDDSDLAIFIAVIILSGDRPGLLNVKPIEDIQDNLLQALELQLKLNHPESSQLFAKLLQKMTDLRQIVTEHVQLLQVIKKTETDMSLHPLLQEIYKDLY

[2] = biological target: T2, Peroxisome proliferator-activated receptor alpha (Homo sapiens, UniProt Q07869); assay: Effect on PPARalpha transactivation activity in HEK293 cells; format: cell-based
T2 sequence (Q07869 whole entry): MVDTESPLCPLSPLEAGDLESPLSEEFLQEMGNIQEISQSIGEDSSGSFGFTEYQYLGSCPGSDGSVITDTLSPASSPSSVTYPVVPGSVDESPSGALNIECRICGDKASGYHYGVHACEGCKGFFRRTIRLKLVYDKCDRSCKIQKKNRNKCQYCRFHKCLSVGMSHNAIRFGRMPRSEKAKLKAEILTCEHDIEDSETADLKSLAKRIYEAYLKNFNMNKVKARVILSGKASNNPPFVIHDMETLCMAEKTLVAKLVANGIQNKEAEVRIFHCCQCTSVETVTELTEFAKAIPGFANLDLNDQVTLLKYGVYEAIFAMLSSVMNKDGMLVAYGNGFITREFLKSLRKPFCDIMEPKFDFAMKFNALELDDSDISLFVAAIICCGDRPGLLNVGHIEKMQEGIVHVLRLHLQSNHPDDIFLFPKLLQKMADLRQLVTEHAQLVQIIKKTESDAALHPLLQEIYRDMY

[3] = biological target: T3, Peroxisome proliferator-activated receptor delta (Homo sapiens, UniProt Q03181)
T3 sequence (Q03181 whole entry): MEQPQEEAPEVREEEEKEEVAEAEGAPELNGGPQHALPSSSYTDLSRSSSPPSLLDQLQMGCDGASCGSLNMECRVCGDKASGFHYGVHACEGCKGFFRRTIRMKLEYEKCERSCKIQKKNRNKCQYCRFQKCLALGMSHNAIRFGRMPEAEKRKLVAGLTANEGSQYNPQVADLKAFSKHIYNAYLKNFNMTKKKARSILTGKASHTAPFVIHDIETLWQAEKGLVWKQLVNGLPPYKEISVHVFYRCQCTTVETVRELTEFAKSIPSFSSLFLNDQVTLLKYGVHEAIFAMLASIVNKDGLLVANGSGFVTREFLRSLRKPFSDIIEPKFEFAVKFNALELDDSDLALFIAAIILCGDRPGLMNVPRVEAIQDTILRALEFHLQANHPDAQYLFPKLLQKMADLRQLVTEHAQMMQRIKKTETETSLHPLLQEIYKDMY

`COc1ccc(CC(C)C(=O)O)cc1CNC(=O)c1ccc(C(F)(F)F)cc1` (stereo not given) showed an EC50 [1] greater than 10 µM.

For `COc1ccc(CCC(=O)O)cc1CNC(=O)c1ccc(C(F)(F)F)cc1`, the EC50 [1] was greater than 10 µM.

Compound `CCC(Cc1ccc(OCc2ccccc2)c(CNC(=O)c2ccc(C(F)(F)F)cc2)c1)C(=O)O` (stereo not given) has an EC50 [2] greater than 10 µM.

With `CCCCOc1ccc(C[C@@H](CC)C(=O)O)cc1CNC(=O)c1ccc(C(F)(F)F)cc1F` the EC50 [3] was 0.0083 µM and the EC50 [1] was 7 µM.
